SMILES strings stand for the structures. Counter-ions that a name gives are not always drawn.

The values below come from patent US20250205229A1, “DRUG FOR TREATING OR PREVENTING CHARCOT-MARIE-TOOTH DISEASE” (Kyoto University, priority 2022, published 2025).

One experiment deals with MFN2 gene. The experiment in a line: Screening for MFN2 mRNA expression by qPCR in motor neurons derived from iPS cells of CMT patients with MFN2 mutations. It counts as cell-based, human. Particulars: relative to vehicle (DMSO) defined as 1, motor neurons having the mutated MFN2 gene, compound added on day 10, RNA extracted on day 12. The text has this: (§1) iPS cells established according to the method described in NPL 3 were used. The iPS cells were derived from peripheral-blood mononuclear cells (PBMCs) from CMT2 patients with MFN2 gene mutations (CMT1 (R94Q) and CMT2 (H128Y)) and healthy subjects without MFN2 mutations (Healthy). A feeder-free medium was used to perform maintenance culture of the iPS cells.
(§2) mRNA was extracted, and mRNA expression levels of MFN1 and MFN2 were quantified by qPCR.
(§3) The overview of the screening method is shown in the upper left of FIG. 2. Constructs expressing Lhx3, Ngn2, and Isl1 under tetracycline induction were introduced into the iPS cells using PiggyBac vectors, whereby stable lines were generated. Doxycycline was added to the iPS cells, and the iPS cells were cultured for 7 days using a neuro-differentiation medium to generate motor neurons (Imamura et al. Sci Transl Med 2017). […]
(§4) Screening was performed to search for existing drugs that increase the expression levels of the MIFN1 gene or MFN2 gene using the motor neurons having the mutated MFN2 gene. […] The expression levels of the MFN1 gene and the MFN2 gene are expressed as relative values with the mRNA expression levels thereof when a vehicle (DMSO) was administered being defined as 1.
Background: In qPCR the cycle at which signal appears reflects the starting amount.

In a further experiment the test system is MFN1 gene. The experiment in a line: Screening for MFN1 mRNA expression by qPCR in motor neurons derived from iPS cells of CMT patients with MFN2 mutations. Type of experiment: cell-based, human. Particulars: relative to vehicle (DMSO) defined as 1, motor neurons having the mutated MFN2 gene, compound added on day 10, RNA extracted on day 12.
From the text: as §1, §2, §3, §4

Turning to `CC(C)N=c1cc2n(-c3ccc(Cl)cc3)c3ccccc3nc-2cc1Nc1ccc(Cl)cc1` [Clofazimine, N,5-bis(4-chlorophenyl)-3-propan-2-yliminophenazin-2-amine], the “Relative expression level of the MFN2 gene” value in the experiment on MFN2 gene was 1.197. Further, the “Relative expression level of the MFN1 gene” value with MFN1 gene came out at 1.889.

Consider `CC[C@@H](CO)NC(=O)[C@@H]1C=C2c3cccc4[nH]cc(c34)C[C@H]2N(C)C1` [Methylergometrine Maleate, (6aR,9R)—N—((S)-1-hydroxybutan-2-yl)-7-methyl-4,6,6a,7,8,9-hexahydroindolo[4,3-fg]quinoline-9-carboxamide maleate], for which the “Relative expression level of the MFN2 gene” value in the experiment with MFN2 gene is 3.676. In addition, the “Relative expression level of the MFN1 gene” value with MFN1 gene was 2.007.
